Test results: patent US20250171404A1, “PCNA INHIBITORS AND USES THEREOF” (CITY OF HOPE, priority 2022, published 2025)

Molecular target: T1, PCNA interaction with RPB1 (Homo sapiens, UniProt P12004)
T1 construct: expressed in transfected cells; host or cells: SK-N-AS (FLAG-RPB1 exogenous; PCNA endogenous)
Experiment: PCNA interaction with RPB1 (immunoprecipitation, western blotting)
Type: cell-based
Conditions: SK-N-AS
Procedure: FIGS. 5A-5E. Modulation of PCNA interaction with RNA polymerase II. FIG. 5A: Chromatin-bound (CB) proteins were fractioned from HEK293T cells expressing FLAG-tagged PCNA after the cells were treated with or without 500 nM AOH1996. Proteins in complex with FLAG-PCNA were immune-precipitated and analyzed by mass spectrometry. Shown are numbers of proteins whose abundances were altered (grey) or unaltered (black) by more than 2-fold by AOH1996 treatment. FIG. 5B: SK-N-AS cells exogenously expressing a FLAG-tagged RPB1 gene were fractioned before and after being treated with 500 nM AOH1996 overnight. PCNA in complex with chromatin-bound (CB) FLAG-RBP1 were analyzed by western blotting. FIG. 5C: Human SK-N-AS cells were treated with UV in the presence or absence of AOH1996 (AOH) or R9-caPep (caPep). Whole cell extracts were analyzed by western blotting. FIG. 5D: Cells exogenously expressing FLAG-tagged wildtype RPB1 or FLAG-tagged APIM-mutant RPB1 gene were fractioned. PCNA in complex with chromatin-bound (CB) FLAG-RBP1 were analyzed by western blotting. FIG. 5E: HEK293T cells were transiently transfected with a FLAG-tagged wildtype RPB1 (APIM WT) gene or mutant RPB1 gene (APIM mutant). The intracellular MCM7 and RBP1 (both the hypo-phosphorylated RNAPIIa and hyper-phosphorylated RNAPIIo forms) were analyzed by western blot after cells were treated by the indicated agents and/or UV.
Modulating PCNA interaction with transcription machinery.
Cell fractionation and immunoprecipitation. Cells were fractionated as previously described (Li et al., 2018). Briefly, intact nuclei isolated following osmotic lysis were homogenized using a 21 G needle. Chromatin was pelleted by centrifugation and incubated overnight at 4° C. with benzonase in two volumes of nuclease buffer (20 mM HEPES pH 7.5, 1.5 mM MgCl2, 1 mM EDTA, 150 mM KCl, 10% glycerol, 0.5 U μl-1 benzonase). The resulting supernatant was collected as the CB fraction. Alternatively, we sequentially incubated the chromatin pellet with RNase A and benzonase and collected the supernatants after each digestion as the CB:RNA+ and CB:RNA− fractions, respectively (Li et al., 2018).

## COc1cccc(Oc2ccccc2NC(=O)CNC(=O)c2cccc3ccccc23)c1 [AOH1996, N-(2-((2-(3-methoxyphenoxy)phenyl)amino)-2-oxoethyl)-1-naphthamide]
chromatin-bound
  PCNA interaction with RPB1: enhanced interaction between PCNA and RPB1
Whole cell extracts
  RPB1 levels: depleted RPB1 in cancer cells
